Here are results for 1 compound from PMC10002220, “In Vivo Reversal of P-Glycoprotein-Mediated Drug Resistance in a Breast Cancer Xenograft and in Leukemia Models Using a Novel, Potent, and Nontoxic Epicatechin EC31” (International Journal of Molecular Sciences, 2023).

One assay deals with LCC6 cells. As to the kind of experiment: Drug resistance level: IC50 of anticancer drugs in LCC6. The assay is classed as cell-based. The following applies: Homo sapiens, LCC-6, 72 h; 3 days incubation. How it is done:
(§1) In the Western blot membrane, the total P-gp and β-actin expression in each lane was quantified with ImageJ software. The relative P-gp expression was an intensity ratio of P-gp band relative to the β-actin band. The relative P-gp expression of the resistant cell line relative to its respective wild type was presented as a bar chart. The plasma membrane P-gp levels of LCC6MDR and K562/P-gp relative to their wild types were determined through flow cytometry using antihuman P-gp-PE antibodies. (B) LCC6MDR and LCC6. (C) K562/P-gp and K562. (D) the drug resistance levels of three P-gp-overexpressing cell lines and their wild types were studied. The 3 pairs of cell lines were incubated with anticancer drugs paclitaxel (PTX), doxorubicin (DOX), and vincristine (VCR) for 3 days, and the % of cell survival was then determined. Their IC50 (nM) values were calculated using Prism 5.0. RF (relative fold) was a ratio of IC50 of anticancer drugs in a P-gp-overexpressing cell line relative to its respective wild type. N = 3 independent experiments. […] All cell lines were counterstained with DAPI. (E) LCC6 and LCC6MDR, (F) P388 and P338ADR, and (G) K562 and K562/P-gp. Bar = 8 µm. / = not determined.

The test system of a further assay is P388 cells. As to the kind of experiment: Drug resistance level: IC50 of anticancer drugs in P388. The assay is classed as cell-based. The following applies: Mus musculus, P388, 72 h; 3 days incubation. How it is done:
as §1

The next assay concerns LCC6MDR cells. Nature of the assay: Drug resistance level: IC50 of anticancer drugs in LCC6MDR. The assay is classed as cell-based, human. How it is done: as §1
In another assay the test system is K562/P-gp cells. Nature of the assay: Drug resistance level: IC50 of anticancer drugs in K562/P-gp. The assay is classed as cell-based, human. How it is done:
as §1

For the next assay, the system named is P388ADR cells. Nature of the assay: Drug resistance level: IC50 of anticancer drugs in P388ADR. The assay is classed as cell-based, mouse. The method, then: as §1
Another assay relates to K562/P-gp leukemia. As to the kind of experiment: In vivo efficacy in reversing DOX resistance in human leukemia K562/P-gp model. Further details: species or system NOD/SCID mice. How it is done: (§2) Irradiated BDF1 mice were i.p. inoculated with P388ADR cells, which caused mouse leukemia. Irradiated NOD/SCID mice were i.v. inoculated with K562/P-gp cells, which caused human leukemia. The mice were randomized and treated with (1) control treatment (no treatment), (2) DOX alone, and (3) EC31 + DOX. Treatments were given as indicated by the arrows. The number of mice deaths in each treatment group was recorded every day. (A) The percent survival of mice infected with P388ADR. (B) The percent survival of mice infected with K562/P-gp. The mice median survival days and the increased lifespan (ILS) were analyzed with Log-rank (Mantel–COX) test in Prism 5.0. Student’s paired t test was conducted as indicated. ** represents p < 0.01, and *** represents p < 0.001. N.S. = not significant.
The mice were randomly distributed into 3 groups: (1) control group (no treatment), (2) DOX (0.9 mg/kg i.v.) alone, and (3) cotreatment with EC31 (30 mg/kg i.p.) being injected 1 h prior to DOX (0.9 mg/kg i.v.) administration. EC31 and DOX were injected on days 7, 11, 19, 23, and 27. Before each treatment, 0.2 mg/mL of DOX was freshly prepared using PBS. Mice survival and body weight were monitored during the study period.

A further assay has as its system K562 cells. Nature of the assay: Drug resistance level: IC50 of anticancer drugs in K562. The assay is classed as cell-based. To be noted: Homo sapiens, K562, 72 h; 3 days incubation. The method, then: as §1
The subject of a further assay is P388ADR leukemia. Nature of the assay: In vivo efficacy in reversing DOX resistance in murine leukemia P388ADR model. Further details: species or system B6D2F1 mice. The following applies: DOX 3 mg/kg i.p. alone. How it is done: as §2
About 1 × 10^6 cells of P388ADR were i.p. inoculated in male B6D2F1 mice aged 5–7 weeks old. There were 3 groups: (1) control group with no treatment, (2) DOX (3 mg/kg i.p.) alone, and (3) cotreatment with EC31 (60 mg/kg i.p.) being injected 1 h prior to DOX (3 mg/kg i.p.) administration. In group 2, DOX was i.p. injected on days 2, 6, 10, 14, and 18 only. In group 3, EC31 was i.p. injected on days 1, 2, 5, 6, 9, 10, 13, 14, 17, and 18, and DOX was i.p. injected on days 2, 6, 10, 14, and 18. Before each treatment, 1.5 mg/mL of DOX was freshly prepared using PBS. Mice survival and body weight were monitored during the study period.

Usually IC50 stands for the midpoint of a concentration-inhibition curve.

As for `COc1cccc2c1C(=O)c1c(O)c3c(c(O)c1C2=O)C[C@@](O)(C(=O)CO)C[C@@H]3O[C@H]1C[C@H](N)[C@H](O)[C@H](C)O1` [DOX, doxorubicin], the IC50 with LCC6 cells was found to be 800 ± 100 nM; with P388 cells, 50 ± 1.8 nM; in the assay on LCC6MDR cells (Homo sapiens, LCC6MDR, 72 h, 3 days incubation), 10300 nM; in the assay on K562/P-gp cells (Homo sapiens, K562, 72 h, 3 days incubation), 1930 ± 126 nM; in the assay on P388ADR cells (Mus musculus, P388/ADR, 72 h, 3 days incubation), 1790 ± 139 nM; with K562 cells, 312 ± 41.6 nM. Moreover, the “RF (relative fold)” value with LCC6MDR cells (IC50 in LCC6MDR relative to LCC6) was 12.9; in the assay on K562/P-gp cells (IC50 in K562/P-gp relative to K562), 6.2; in the assay on P388ADR cells (IC50 in P388ADR relative to P388), 35.8. Further, the median survival time in the assay with K562/P-gp leukemia (DOX 0.9 mg/kg i.v. alone) is listed as 32.0 days. Also, the “ILS% (increase in lifespan)” value in the assay on K562/P-gp leukemia (DOX alone compared to untreated) turned out to be 10.3%. In addition, the median survival in the assay on P388ADR leukemia is given as 16.5 days.
